Data set [1] deals with T1, squalene synthase (Homo sapiens, UniProt P37268).
T1 sequence (P37268 1-417): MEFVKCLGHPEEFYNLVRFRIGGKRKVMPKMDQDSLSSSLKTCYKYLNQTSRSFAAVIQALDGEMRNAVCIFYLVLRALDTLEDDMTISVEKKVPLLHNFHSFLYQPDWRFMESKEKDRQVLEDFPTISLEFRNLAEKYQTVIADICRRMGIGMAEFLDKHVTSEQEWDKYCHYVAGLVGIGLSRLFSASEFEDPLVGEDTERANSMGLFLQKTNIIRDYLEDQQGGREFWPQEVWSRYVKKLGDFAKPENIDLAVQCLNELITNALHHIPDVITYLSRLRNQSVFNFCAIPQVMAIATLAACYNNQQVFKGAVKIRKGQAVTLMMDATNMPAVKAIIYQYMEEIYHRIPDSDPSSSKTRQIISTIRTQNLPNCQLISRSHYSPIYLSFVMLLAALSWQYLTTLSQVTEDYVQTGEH
Particulars: cited from earlier work.

Data set [2] concerns secretion of apo-B from HepG2 cells. Description: Apo-B secretion from HepG2 cells. The following applies: for nature of interaction with ethanol extract of HL: non-linear blending curves, combined total doses 30-250 ug/ml, FIGS. 9-11, 14-35; for nature of interaction with berberine (BBR): non-linear blending, combined total dose 50 ug/ml, FIGS. 36-40. The format is cell-based, human. On the procedure:
In the Examples to follow, Apo-B secretion experiments were carried out on HepG2 cells. These cells were obtained from the American Type Culture Collection (cat #: ATCC HB-8065). HepG2, a human hepatoblastoma-derived cell line, is one of the most commonly used models to study lipoprotein uptake and metabolism in intact human liver. These cells secrete most of the plasma proteins secreted from human liver cells including apolipoprotein-B [38]. In addition, most of the enzymes involved in intra- and extracellular cholesterol metabolism including LCAT, ACAT, HMG-CoA reductase and Cholesterol 7-α-hydroxylase are expressed in these cells.
The effects of HL, KDC and hawthorn extracts, when used in isolation as well as in combination, on the secretion of apo-B from human hepatoma cells, Hep-G2 was determined. Water extracts of Coptis chinesis (Huanglian) and Ku Ding Cha (Ilex kudingcha) were developed and tested; results are indicated in FIGS. 1 and 2, respectively. Ethanolic extracts of Coptis chinesis (Huanglian) and ethyl acetate extracts of Ku Ding Cha (Ilex kudingcha) were also developed and hawthorn extract was used for these experiments shown in FIGS. 3-12.
Additional experiments were subsequently carried out to confirm the synergism between the HL and KDC extracts. Three commonly used approaches including non-linear blending, isobologram and combination index were utilized to determine this interaction.
Determination of a drugs combination index (CI) provides quantitative information of the nature of drug interaction. It is calculated through the following equation: CI=(CA,X/ICX,A)+(CB,X/ICX,B) CA,X and CB,X, are the concentrations of drug A and drug B used in the combination to achieve x % drug effect. ICX,A and ICX,B are the concentrations for single agents to achieve the same effect. A CI of less than, equal to, and more than 1 indicates synergy, additivity, and antagonism, respectively.

Data set [3] addresses acyl-CoA: cholesterol acyltransferase (ACAT). The following applies: cited from earlier work.
Data set [4] concerns the target T2, CYP2E1 (Homo sapiens, UniProt P05181).
T2 construct: incubation of human liver microsomes with BBR; from tissue; host or cells: human liver microsomes
Particulars: human liver microsomes, 20 μM; cited from earlier work. For orientation: Liver microsomes are vesicles of endoplasmic reticulum, rich in cytochrome P450 enzymes.

The subject of data set [5] is LDL receptors. Particulars: Hep G2 cells; cited from earlier work.
For data set [6], the system named is mice. Particulars: mouse, in vivo; cited from earlier work.
The subject of data set [7] is Hep G2 cells. The following applies: cited from earlier work.
The conditions of data set [8]: oral, 100 mg/day for 2 weeks; cited from earlier work.
In data set [9] the target is T3, CYP3A4 (Homo sapiens, UniProt P08684).
T3 construct: incubation of human liver microsomes with BBR; from tissue; host or cells: human liver microsomes
Particulars: human liver microsomes, 20 μM; cited from earlier work.

The conditions of data set [10]: 1 g/day for 3 months; cited from earlier work.
The subject of data set [11] is L929 cells. The following applies: cited from earlier work.
Data set [12] has as its system 3T3-L1 adipocytes. Particulars: cited from earlier work.
The target in data set [13] is T4, CYP2D6 (Homo sapiens, UniProt P10635).
T4 construct: incubation of human liver microsomes with BBR; from tissue; host or cells: human liver microsomes
Particulars: human liver microsomes, 20 μM; cited from earlier work.

In data set [14] the target is nucleoside triphosphate hydrolase (NTPase). The following applies: cited from earlier work.

Here are results for 7 molecules from patent publication US8642094B2, “Synergistic pharmaceutical composition, method of making same and use of same” (Afexa Life Sciences Inc., priority 2008, dated 2014).

T4 sequence (P10635 whole entry): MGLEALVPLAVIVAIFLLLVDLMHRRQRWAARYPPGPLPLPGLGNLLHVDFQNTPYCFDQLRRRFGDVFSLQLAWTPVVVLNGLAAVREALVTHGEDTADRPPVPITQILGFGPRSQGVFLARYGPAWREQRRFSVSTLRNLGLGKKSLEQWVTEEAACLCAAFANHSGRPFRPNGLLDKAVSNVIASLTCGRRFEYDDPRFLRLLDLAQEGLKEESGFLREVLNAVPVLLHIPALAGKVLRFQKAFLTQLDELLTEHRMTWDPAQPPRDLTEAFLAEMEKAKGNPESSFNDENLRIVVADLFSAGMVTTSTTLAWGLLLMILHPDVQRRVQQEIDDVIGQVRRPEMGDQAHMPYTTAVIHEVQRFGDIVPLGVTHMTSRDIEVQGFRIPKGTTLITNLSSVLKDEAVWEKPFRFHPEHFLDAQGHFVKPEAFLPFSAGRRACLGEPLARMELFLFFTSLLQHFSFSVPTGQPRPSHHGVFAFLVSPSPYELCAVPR
T2 sequence (P05181 whole entry): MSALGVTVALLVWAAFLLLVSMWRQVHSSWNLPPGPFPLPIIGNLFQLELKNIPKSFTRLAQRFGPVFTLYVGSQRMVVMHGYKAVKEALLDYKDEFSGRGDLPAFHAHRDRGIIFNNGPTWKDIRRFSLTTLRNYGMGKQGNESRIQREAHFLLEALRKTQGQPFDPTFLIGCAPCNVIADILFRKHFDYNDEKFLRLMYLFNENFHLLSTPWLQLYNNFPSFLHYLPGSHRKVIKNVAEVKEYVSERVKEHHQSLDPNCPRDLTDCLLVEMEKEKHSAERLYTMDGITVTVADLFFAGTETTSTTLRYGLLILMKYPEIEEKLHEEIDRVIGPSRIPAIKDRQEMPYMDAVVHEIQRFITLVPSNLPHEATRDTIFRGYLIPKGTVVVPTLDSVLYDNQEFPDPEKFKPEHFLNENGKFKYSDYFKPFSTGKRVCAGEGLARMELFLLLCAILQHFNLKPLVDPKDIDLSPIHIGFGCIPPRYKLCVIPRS
T3 sequence (P08684 whole entry): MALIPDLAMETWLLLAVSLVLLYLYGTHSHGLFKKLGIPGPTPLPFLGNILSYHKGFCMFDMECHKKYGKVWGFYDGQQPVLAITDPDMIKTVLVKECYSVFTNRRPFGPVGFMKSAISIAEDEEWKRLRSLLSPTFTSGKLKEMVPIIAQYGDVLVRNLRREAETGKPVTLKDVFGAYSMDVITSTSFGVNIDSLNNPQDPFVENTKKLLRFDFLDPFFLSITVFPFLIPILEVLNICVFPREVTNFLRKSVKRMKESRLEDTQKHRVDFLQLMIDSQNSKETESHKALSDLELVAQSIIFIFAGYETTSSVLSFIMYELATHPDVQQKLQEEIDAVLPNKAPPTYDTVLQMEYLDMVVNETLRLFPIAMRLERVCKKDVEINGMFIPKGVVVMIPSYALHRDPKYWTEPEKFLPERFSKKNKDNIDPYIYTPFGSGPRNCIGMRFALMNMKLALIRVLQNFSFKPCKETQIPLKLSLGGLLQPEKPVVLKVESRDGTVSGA

Regarding `O=C(/C=C/c1ccc(O)c(O)c1)O[C@@H]1C[C@](O)(C(=O)O)C[C@@H](O)[C@H]1O` [Chlorogenic acid], the IC50 in data set [1] is 0.1 µM. In addition, in data set [2], the “nature of interaction with ethanol extract of HL” value (“nature of interaction … of HL” below) was “synergism” and the “nature of interaction with berberine (BBR)” value (shortened to “nature of interaction … (BBR)”) was “synergism”.

In the case of `C=C(C)[C@@H]1CC[C@]2(C)CC[C@]3(C)[C@H](CC[C@@H]4[C@@]5(C)CC[C@H](O)C(C)(C)[C@@H]5CC[C@]43C)[C@@H]12` [Lupeol, 3β-Hydroxy-20(29)-lupene], the IC50 in data set [3] was 48 µM. Besides, in data set [2], the “nature of interaction … of HL” value is reported as “interacting with HL” and the “nature of interaction … (BBR)” value was “synergism”.

For `COc1cc2c(cc1OC)-c1cc3ccc(OC)c(OC)c3c[n+]1CC2` [Palmitine chloride, palmitine chloride], the “nature of interaction … (BBR)” value in [2] was “interact synergistically”.

On to `COc1ccc2cc3[n+](cc2c1OC)CCc1cc2c(cc1-3)OCO2` [berberine], for which the CYP2E1 activity result in data set [4] was “decrease the activities”. For the same molecule, the “expression of LDL receptors” value in [5] is listed as “increases the expression of LDL receptors”. Further, the lethal dose entry in [6] is listed as “exceeding 15 mg/Kg”. Besides, the “synthesis of cholesterol and triglyceride in the cells” value in [7] was “inhibit the synthesis of cholesterol and triglyceride”. Also, in data set [8], the “reduction of serum LDL-cholesterol levels” value was “up to 30%” and the “reduction of serum total cholesterol levels” value was “up to 30%”. The CYP3A4 activity entry in data set [9] was “decrease the activities”. In addition, in data set [10], the “reduction of LDL-cholesterol” value is given as 25%, the “reduction of serum cholesterol concentrations” value is on record as 29% and the reduction of triglycerides is on record as 35%. Besides, in data set [11], the dose inducing cytotoxicity entry was “greater than 40 μg/ml”. For the same molecule, the “differentiation of 3T3-L1 adipocytes” value in data set [12] is listed as “inhibit differentiation”. In addition, in data set [13], the CYP2D6 activity entry is recorded as “decrease the activities”.

For `C=C(C)[C@@H]1CC[C@]2(CO)CC[C@]3(C)[C@H](CC[C@@H]4[C@@]5(C)CC[C@H](O)C(C)(C)[C@@H]5CC[C@]43C)[C@@H]12` [betulin, lup-20[29]-ene-3β,28-diol], in data set [3], the IC50 is 83 µM. Besides, in data set [2], the “nature of interaction … of HL” value was “interacting with HL” and the “nature of interaction … (BBR)” value is on record as “synergism”.

For `C[C@H]1[C@H](C)CC[C@]2(C(=O)O)CC[C@]3(C)C(=CC[C@@H]4[C@@]5(C)CC[C@H](O)C(C)(C)[C@@H]5CC[C@]43C)[C@H]12` [ursolic acid, 3β-Hydroxy-12-ursen-28-ic acid], the IC50 in data set [14] was 0.6 µM. Moreover, the IC50 in [3] is 58.8 µM. For the same molecule, in data set [2], the “nature of interaction … of HL” value is listed as “interacting with HL” and the “nature of interaction … (BBR)” value was “synergism”.

Turning to Lipedoside B-III, the IC50 in data set [3] was 269 µM.

By IC50 is commonly meant the concentration that gives 50% inhibition.
